Measurements as given in PubChem BioAssay AID248 (DTP/NCI, 2004).
Several values for one entry are separate records, joined by “and”; a condition that tells them apart may be missing. Equal values may be shown once. Toxic doses and inconclusive results are not listed.

Tested on: L1210 leukemia ip in BDF1 mice, survival T/C
Experiment: NCI In Vivo Anticancer Drug Screen. Data for tumor model L1210 Leukemia (intraperitoneal) in B6D2F1 (BDF1) mice
Settings: endpoint: mean survival time, higher = longer survival
Outline: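 Survival endpoint. Drug-treated group vs vehicle group, expressed as T divided by C. Tumor passaged by transplantation.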

[1] = dose: 100.0 mg/kg/injection, schedule: Q01DX009 (ip), vehicle: Klucel (hydroxypropylcellulose) (HPC)
[2] = dose: 100.0 mg/kg/injection, schedule: Q04DX003 (ip), vehicle: saline with Tween-80
[3] = dose: 200.0 mg/kg/injection, schedule: Q04DX003 (ip), vehicle: saline with Tween-80
[4] = dose: 400.0 mg/kg/injection, schedule: Q04DX003 (ip), vehicle: saline with Tween-80
[5] = dose: 100.0 mg/kg/injection, schedule: Q04DX003 (ip), vehicle: saline
[6] = dose: 100.0 mg/kg/injection, schedule: Q01DX009 (ip), vehicle: saline
[7] = dose: 200.0 mg/kg/injection, schedule: Q01DX009 (ip), vehicle: saline
[8] = dose: 200.0 mg/kg/injection, schedule: Q04DX003 (ip), vehicle: saline
[9] = dose: 400.0 mg/kg/injection, schedule: Q01DX009 (ip), vehicle: saline
[10] = dose: 400.0 mg/kg/injection, schedule: Q04DX003 (ip), vehicle: saline

With `Cc1ccc(/C=C\C(=O)c2ccccc2)cc1` the T/C (dose: 100.0 mg/kg/injection, schedule: Q04DX003 (ip), vehicle: Klucel (hydroxypropylcellulose) (HPC)) was 100 % of control, the T/C (dose: 200.0 mg/kg/injection, schedule: Q04DX003 (ip), vehicle: Klucel (hydroxypropylcellulose) (HPC)) was 96 % of control and the T/C (dose: 400.0 mg/kg/injection, schedule: Q04DX003 (ip), vehicle: Klucel (hydroxypropylcellulose) (HPC)) was 102 % of control.
For `CC(C)(C)C1CCC([N+](=O)[O-])CC1` (stereo not given), the T/C (dose: 19.0 mg/kg/injection, schedule: Q01DX001 (ip), vehicle: other) was 103 % of control, the T/C (dose: 19.0 mg/kg/injection, schedule: Q01DX009 (ip), vehicle: other) was 102 % of control and the T/C (dose: 38.0 mg/kg/injection, schedule: Q01DX001 (ip), vehicle: other) was 97 % of control. For the same compound, the T/C (dose: 38.0 mg/kg/injection, schedule: Q01DX009 (ip), vehicle: other) was 98 % of control and the T/C (dose: 75.0 mg/kg/injection, schedule: Q01DX001 (ip), vehicle: other) was 95 % of control and 97 % of control.
In the case of `COc1ccc(OC)c(/C=N\NC(=O)c2ccccc2N(C)C)c1`, the T/C (dose: 100.0 mg/kg/injection, schedule: Q04DX002 (ip), vehicle: gum acacia) was 100 % of control, the T/C (dose: 200.0 mg/kg/injection, schedule: Q04DX002 (ip), vehicle: gum acacia) was 90 % of control and the T/C (dose: 400.0 mg/kg/injection, schedule: Q04DX002 (ip), vehicle: gum acacia) was 103 % of control.
In the case of `COc1cc(/C=C/[N+](=O)[O-])ccc1O`, the T/C (dose: 25.0 mg/kg/injection, schedule: Q01DX009 (ip), vehicle: Klucel (hydroxypropylcellulose) (HPC)) was 98 % of control, the T/C (dose: 50.0 mg/kg/injection, schedule: Q01DX009 (ip), vehicle: Klucel (hydroxypropylcellulose) (HPC)) was 98 % of control and the T/C [1] was 102 % of control and 103 % of control.
`O=C(O)c1cc2c3c(c1)CCCN3CCC2` was tested, and the T/C (dose: 50.0 mg/kg/injection, schedule: Q04DX003 (ip), vehicle: saline with Tween-80) was 100 % of control, the T/C [2] was 100 % of control and the T/C [3] was 102 % of control. The T/C [4] was 91 % of control.
`COc1cc2c(cc1OC)C(CCN1C(=O)CCC1=O)NCC2` (stereo not given) was tested, and the T/C (dose: 100.0 mg/kg/injection, schedule: Q01DX009 (ip), vehicle: saline with Tween-80) was 92 % of control and the T/C (dose: 200.0 mg/kg/injection, schedule: Q01DX009 (ip), vehicle: saline with Tween-80) was 98 % of control.
For `CCOC(=O)C12CCCCC1=CC1(CC2)SCCS1` (stereo not given), the T/C (dose: 100.0 mg/kg/injection, schedule: Q01DX009 (ip), vehicle: acetone) was 88 % of control, the T/C (dose: 200.0 mg/kg/injection, schedule: Q01DX009 (ip), vehicle: acetone) was 91 % of control and the T/C (dose: 400.0 mg/kg/injection, schedule: Q01DX009 (ip), vehicle: acetone) was 246 % of control.
In the case of `N#Cc1cc2ccncc2c2ccccc12`, the T/C [2] was 100 % of control, the T/C [3] was 96 % of control and the T/C [4] was 97 % of control.
In the case of `OC1CN(C2CCCCC2)C1`, the T/C [5] was 98 % of control.
`CC(=O)N1CC(n2cnc3c(N)ncnc32)CC1CO` (stereo not given) was tested, and the T/C (dose: 12.5 mg/kg/injection, schedule: Q04DX002 (ip), vehicle: saline with Tween-80) was 102 % of control, the T/C (dose: 25.0 mg/kg/injection, schedule: Q04DX002 (ip), vehicle: saline with Tween-80) was 98 % of control and the T/C (dose: 50.0 mg/kg/injection, schedule: Q04DX002 (ip), vehicle: saline with Tween-80) was 94 % of control.
`CCOC(=O)c1c(Cl)nc2ccccc2c1Cl` was tested, and the T/C (dose: 100.0 mg/kg/injection, schedule: Q01DX001 (ip), vehicle: saline) was 92 % of control, the T/C (dose: 200.0 mg/kg/injection, schedule: Q01DX001 (ip), vehicle: saline) was 97 % of control and the T/C (dose: 400.0 mg/kg/injection, schedule: Q01DX001 (ip), vehicle: saline) was 94 % of control.
`CCOCCC(O)CC` (stereo not given) was tested, and the T/C [6] was 98 % of control, the T/C [5] was 90 % of control and the T/C [7] was 98 % of control. For the same compound, the T/C [8] was 88 % of control, the T/C [9] was 98 % of control and the T/C [10] was 89 % of control.
With `O=C(N/N=C/c1cccc([N+](=O)[O-])c1)c1ccc(O)cc1` the T/C (dose: 100.0 mg/kg/injection, schedule: Q04DX002 (ip), vehicle: Klucel (hydroxypropylcellulose) (HPC)) was 102 % of control and the T/C (dose: 200.0 mg/kg/injection, schedule: Q04DX002 (ip), vehicle: Klucel (hydroxypropylcellulose) (HPC)) was 105 % of control.
In the case of `CCC1(CCCCCCC(=O)CC(C)=O)OCCO1`, the T/C [1] was 105 % of control, the T/C (dose: 200.0 mg/kg/injection, schedule: Q01DX009 (ip), vehicle: Klucel (hydroxypropylcellulose) (HPC)) was 104 % of control and the T/C (dose: 400.0 mg/kg/injection, schedule: Q01DX009 (ip), vehicle: Klucel (hydroxypropylcellulose) (HPC)) was 91 % of control.
For `O=S1(=O)CCCC1`, the T/C [6] was 104 % of control, the T/C [5] was 104 % of control and the T/C [7] was 98 % of control. For the same compound, the T/C [8] was 100 % of control, the T/C [9] was 96 % of control and the T/C [10] was 98 % of control.
